Laboratory results as given in paper PMC8582824, “Targeting DDX3X Helicase Activity with BA103 Shows Promising Therapeutic Effects in Preclinical Glioblastoma Models” (Cancers, 2021).

Legend:
HN6 = experiment: MTS cytotoxicity assay, HN6 cells; format: cell-based; conditions: HN6, 72 h
Description: (§1) For CellTiter 96® Aqueous One Solution Cell Proliferation Assay (MTS) (Promega, Madison, WI, USA), cells were seeded at 5 × 10^3 per well in 96-well plates in quadruplicate together a control with no cells to evaluate the background. After 24 h, the culture medium was removed, and fresh medium containing increasing concentrations of chemical compounds was added to cells. The fixed final concentrations were 0.1 μM, 1 μM, 10 μM, and 100 μM. DMSO was the vehicle used for dilution of the compounds, and its final concentration on cells was less than 0.2%. Medium-only containing wells were included as controls. […] After 3 h at 37 °C in a humidified, 5% CO2 atmosphere, the absorbance at 492 nm was recorded using an EZREAD400 (Biochrom, Cambridge, United Kingdom) plate reader. The average 490 nm absorbance from the “no cell” control wells was subtracted from all other values to yield background-corrected absorbance. Dose–response curves and CC50 values have been calculated by plotting the absorbance data as a function of inhibitor concentrations and fitting the data by least-squares nonlinear regression, according to the method of Marquardt–Levenberg, with the computer program GraphPad Prism 6.0.
(§2) Cells were incubated with a scalar concentration of DDX3X inhibitors, and after 72 h of treatment, cell viability was assessed by cytotoxicity assay. […]

[1] = test system: panel of cancer cell lines (Du-145, PC3, HepG2, Huh-7, HN6, U87 and U231); experiment: Cytotoxicity screen on panel of cancer cell lines; format: cell-based; conditions: 72 h of treatment
Description: as §1, §2

CCCCc1cn(-c2ccc(NC(=O)Nc3ccccc3C(F)(F)F)cc2)nn1 [BA103, 1-(4-(4-Butyl-1H-1,2,3-triazol-1-yl)phenyl)-3-(2-(trifluoromethyl)phenyl)urea]
CC50 (HN6): low micromolar range

CCCCc1nnc(-c2ccc(NC(=O)Nc3ccccc3C(F)(F)F)cc2)[nH]1 [Compound 4, 1-(4-(5-Butyl-4H-1,2,4-triazol-3-yl)phenyl)-3-(2-(trifluoromethyl)phenyl)urea]
growth inhibition in all the cell lines tested [1]: showed inhibition growth capability in all the cell lines tested
